# Source: patent US7705007B2, “Cis-imidazolines” (Hoffmann-La Roche Inc., priority 2006, dated 2010)
# Where a name gives a salt, the structure may show the parent alone.
# Target: interaction between p53 and MDM2 proteins (recombinant GST-tagged MDM2 / p53 peptide) (Homo sapiens, UniProt Q00987)
# Test: HTRF assay of inhibition of the p53-MDM2 interaction (GST-MDM2 binding to biotinylated p53 peptide)
# Details: 90 nM biotinylated p53 peptide, 160 ng/mL GST-MDM2, 37° C. 1 h
# Method: The ability of the compounds to inhibit the interaction between p53 and MDM2 proteins was measured by an HTRF (homogeneous time-resolved fluorescence) assay in which recombinant GST-tagged MDM2 binds to a peptide that resembles the MDM2-interacting region of p53 (Lane et al.). Binding of GST-MDM2 protein and p53-peptide (biotinylated on its N-terminal end) is registered by the FRET (fluorescence resonance energy transfer) between Europium (Eu)-labeled anti-GST antibody and streptavidin-conjugated Allophycocyanin (APC).
# Test is performed in black flat-bottom 384-well plates (Costar) in a total volume of 40 uL containing: 90 nM biotinylate peptide, 160 ng/mL GST-MDM2, 20 nM streptavidin-APC (PerkinElmerWallac), 2 nM Eu-labeled anti-GST-antibody (PerkinElmerWallac), 0.2% bovine serum albumin (BSA), 1 mM dithiothreitol (DTT) and 20 mM Tris-borate saline (TBS) buffer as follows: Add 10 uL of GST-MDM2 (640 ng/mL working solution) in reaction buffer to each well. Add 10 uL diluted compounds (1:5 dilution in reaction buffer) to each well, mix by shaking. Add 20 uL biotinylated p53 peptide (180 nM working solution) in reaction buffer to each well and mix on shaker. Incubate at 37° C. for 1 h. Add 20 uL streptavidin-APC and Eu-anti-GST antibody mixture (6 nM Eu-anti-GST and 60 nM streptavidin-APC working solution) in TBS buffer with 0.2% BSA, shake at room temperature for 30 minutes and read using a TRF-capable plate reader at 665 and 615 nm (Victor 5, Perkin ElmerWallac). If not specified, the reagents were purchased from Sigma Chemical Co.
# interaction between p53 and MDM2 proteins (recombinant GST-tagged MDM2 / p53 peptide), sequence (Q00987 whole entry): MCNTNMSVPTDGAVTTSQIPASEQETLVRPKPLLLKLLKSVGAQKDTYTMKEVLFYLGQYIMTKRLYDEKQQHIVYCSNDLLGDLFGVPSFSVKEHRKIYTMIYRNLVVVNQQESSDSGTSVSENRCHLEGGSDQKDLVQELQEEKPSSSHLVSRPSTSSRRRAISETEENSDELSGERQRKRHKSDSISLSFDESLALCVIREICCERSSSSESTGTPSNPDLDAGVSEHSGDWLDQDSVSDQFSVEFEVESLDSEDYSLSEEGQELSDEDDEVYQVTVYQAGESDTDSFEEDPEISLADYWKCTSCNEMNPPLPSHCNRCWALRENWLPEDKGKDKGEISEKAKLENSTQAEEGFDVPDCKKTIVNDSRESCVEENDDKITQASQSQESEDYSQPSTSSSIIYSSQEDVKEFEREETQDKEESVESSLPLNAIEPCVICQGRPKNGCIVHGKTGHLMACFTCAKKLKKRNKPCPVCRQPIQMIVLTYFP
row,Structure (SMILES),IC50 [nM]
1,"CCOc1nc(C)ncc1C1=N[C@@H](c2ccc(Cl)cc2)[C@@H](c2ccc(Cl)cc2)N1C(=O)N1CCN(CC(=O)N(C)C)CC1 (relative stereo) [Example 17, cis-2-{4-[4,5-Bis-(4-chloro-phenyl)-2-(4-ethoxy-2-methyl-pyrimidin-5-yl)-4,5-dihydro-imidazole-1-carbonyl]-piperazin-1-yl}-N,N-dimethyl-acetamide]",677
2,"CCOc1ccsc1C1=N[C@@H](c2ccc(Cl)cc2)[C@@H](c2ccc(Cl)cc2)N1C(=O)N1CCN(CC(=O)NC(C)(C)C)CC1 [Example 34, 2-{4-[(4S,5R)-4,5-Bis-(4-chloro-phenyl)-2-(3-ethoxy-thiophen-2-yl)-4,5-dihydro-imidazole-1-carbonyl]-piperazin-1-yl}-N-tert-butyl-acetamide]",110
3,"CCOc1ccsc1C1=N[C@@H](c2ccc(Cl)cc2)[C@@H](c2ccc(Cl)cc2)N1C(=O)N1CCN(CC(=O)N(CCOC)CCOC)CC1 [Example 36, 2-{4-[(4S,5R)-4,5-Bis-(4-chloro-phenyl)-2-(3-ethoxy-thiophen-2-yl)-4,5-dihydro-imidazole-1-carbonyl]-piperazin-1-yl}-N,N-bis-(2-methoxy-ethyl)-acetamide]",54

# Continued by falling IC50, values first:
row,IC50 [nM],Structure (SMILES)
1,2890,"CCOc1nc(C(F)(F)F)ncc1C1=N[C@@H](c2ccc(Cl)cc2)[C@@H](c2ccc(Cl)cc2)N1C(=O)N1CCN(CCS(C)(=O)=O)CC1 (relative stereo) [Example 6, cis-[4,5-Bis-(4-chloro-phenyl)-2-(4-ethoxy-2-trifluoromethyl-pyrimidin-5-yl)-4,5-dihydro-imidazol-1-yl]-[4-(2-methanesulfonyl-ethyl)-piperazin-1-yl]-methanone]"
2,46,"CCOc1nc(C(C)(C)C)ncc1C1=N[C@@H](c2ccc(Cl)cc2)[C@@H](c2ccc(Cl)cc2)N1C(=O)N1CCNC(=O)C1 (relative stereo) [Example 20, cis-4-[2-(2-tert-Butyl-4-ethoxy-pyrimidin-5-yl)-4,5-bis-(4-chloro-phenyl)-4,5-dihydro-imidazole-1-carbonyl]-piperazin-2-one hydrochloride]"
